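Test compounds were applied to cells in 96-well plates for 48 hours at 5 doses. GI50 is the concentration that inhibits growth by half.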 Calls of active or inactive are those of the source. No stated cut-off is given here; in the data, active = GI50 up to about 1.1 µM and inactive = higher.
Legend:
Experiment in all cases: NCI tumour cell line growth inhibition, 48 h
HCC 2998 = system: HCC 2998
Hs-578T = system: Hs-578T
SF-295 = system: SF-295
SK-OV-3 = system: SK-OV-3
A498 = system: A498
SR = system: SR
ACHN = system: ACHN
EKVX = system: EKVX
UACC-62 = system: UACC-62
SK-MEL-28 = system: SK-MEL-28
RXF 393 = system: RXF 393
MOLT-4 = system: MOLT-4
UO-31 = system: UO-31
SNB-75 = system: SNB-75
LOX IMVI = system: LOX IMVI
SN12C = system: SN12C
786-0 = system: 786-0
HOP-62 = system: HOP-62
SF-539 = system: SF-539

Compound: CCNC(=S)N/N=C/c1cc([N+](=O)[O-])ccc1O
- GI50 (HCC 2998): 16.2 µM (inactive)
- GI50 (Hs-578T): 70.5 µM (inactive)
- GI50 (SF-295): 35.6 µM (inactive)
- GI50 (SK-OV-3): 15 µM (inactive)
- GI50 (A498): 13.2 µM (inactive)
- GI50 (SR): 10.9 µM (inactive)
- GI50 (ACHN): 25.8 µM (inactive)
- GI50 (EKVX): 30.4 µM (inactive)
- GI50 (UACC-62): 17.5 µM (inactive)
- GI50 (SK-MEL-28): 51.8 µM (inactive)
- GI50 (RXF 393): 62.2 µM (inactive)
- GI50 (MOLT-4): 8.73 µM (inactive)
- GI50 (UO-31): 22.3 µM (inactive)
- GI50 (SNB-75): 52 µM (inactive)
- GI50 (LOX IMVI): 15.7 µM (inactive)
- GI50 (SN12C): 31.5 µM (inactive)
- GI50 (786-0): 20.5 µM (inactive)
- GI50 (HOP-62): 32.7 µM (inactive)
- GI50 (SF-539): 35.4 µM (inactive)

Compound: CCn1c2ccc(C(=O)CCCN3CCCCC3)cc2c2cc(C(=O)CCCN3CCCCC3)ccc21
- GI50 (HCC 2998): 5.94 µM (inactive)
- GI50 (Hs-578T): 2.44 µM (inactive)
- GI50 (SF-295): 2.43 µM (inactive)
- GI50 (SK-OV-3): 3.43 µM (inactive)
- GI50 (A498): 5.7 µM (inactive)
- GI50 (SR): 2.45 µM (inactive)
- GI50 (ACHN): 1.74 µM (inactive)
- GI50 (EKVX): 4.84 µM (inactive)
- GI50 (UACC-62): 23 µM (inactive)
- GI50 (SK-MEL-28): 19.3 µM (inactive)
- GI50 (RXF 393): 2.63 µM (inactive)
- GI50 (MOLT-4): 0.524 µM (active)
- GI50 (UO-31): 5.32 µM (inactive)
- GI50 (SNB-75): 2.24 µM (inactive)
- GI50 (LOX IMVI): 1.86 µM (inactive)
- GI50 (SN12C): 4.16 µM (inactive)
- GI50 (786-0): 0.938 µM (active)
- GI50 (HOP-62): 3.3 µM (inactive)
- GI50 (SF-539): 1.77 µM (inactive)

Compound: COc1cc(/C=C2\N=C(c3ccccc3)N(c3nc4c(OC)ccc(OC)c4s3)C2=O)ccc1O
- GI50 (HCC 2998): 33.8 µM (inactive)
- GI50 (Hs-578T): 48.8 µM (inactive)
- GI50 (SF-295): 79.1 µM (inactive)
- GI50 (SK-OV-3): > 100 µM (inactive)
- GI50 (A498): > 100 µM (inactive)
- GI50 (SR): 30 µM (inactive)
- GI50 (ACHN): 59.2 µM (inactive)
- GI50 (EKVX): > 100 µM (inactive)
- GI50 (UACC-62): 33 µM (inactive)
- GI50 (SK-MEL-28): > 100 µM (inactive)
- GI50 (RXF 393): 11.1 µM (inactive)
- GI50 (MOLT-4): 16.7 µM (inactive)
- GI50 (UO-31): 76.7 µM (inactive)
- GI50 (SNB-75): 8.34 µM (inactive)
- GI50 (LOX IMVI): 24 µM (inactive)
- GI50 (SN12C): > 100 µM (inactive)
- GI50 (786-0): 39.4 µM (inactive)
- GI50 (HOP-62): 90.8 µM (inactive)
- GI50 (SF-539): 57.9 µM (inactive)

Compound: C[C@]12CCC(=O)C=C1CC[C@@H]1[C@@H]2CC[C@]2(C)C(=O)/C(=C/c3ccc([N+](=O)[O-])cc3)C[C@@H]12
- GI50 (HCC 2998): 63.2 µM (inactive)
- GI50 (Hs-578T): > 100 µM (inactive)
- GI50 (SF-295): 63.7 µM (inactive)
- GI50 (SK-OV-3): > 100 µM (inactive)
- GI50 (A498): 2.3 µM (inactive)
- GI50 (SR): 2.9 µM (inactive)
- GI50 (ACHN): 2.36 µM (inactive)
- GI50 (EKVX): 17.1 µM (inactive)
- GI50 (UACC-62): 3.36 µM (inactive)
- GI50 (SK-MEL-28): > 100 µM (inactive)
- GI50 (RXF 393): 13.5 µM (inactive)
- GI50 (MOLT-4): 2.77 µM (inactive)
- GI50 (UO-31): 3.45 µM (inactive)
- GI50 (SNB-75): 42 µM (inactive)
- GI50 (LOX IMVI): 37.9 µM (inactive)
- GI50 (SN12C): 46.3 µM (inactive)
- GI50 (786-0): 18.6 µM (inactive)
- GI50 (HOP-62): 49.8 µM (inactive)
- GI50 (SF-539): 79.3 µM (inactive)

Compound: COc1cc(CC(C)C(C)Cc2ccc(O)c(OC)c2)ccc1O (centres undefined) [DIHYDROGUAIARETIC ACID]
- GI50 (HCC 2998): 18.5 µM (inactive)
- GI50 (Hs-578T): 8.15 µM (inactive)
- GI50 (SF-295): 17.2 µM (inactive)
- GI50 (SK-OV-3): 20.9 µM (inactive)
- GI50 (A498): 18.5 µM (inactive)
- GI50 (SR): 9.2 µM (inactive)
- GI50 (ACHN): 13.1 µM (inactive)
- GI50 (EKVX): 15.5 µM (inactive)
- GI50 (UACC-62): 16.7 µM (inactive)
- GI50 (SK-MEL-28): 21 µM (inactive)
- GI50 (RXF 393): 13.1 µM (inactive)
- GI50 (MOLT-4): 9.29 µM (inactive)
- GI50 (UO-31): 12.7 µM (inactive)
- GI50 (SNB-75): 14.2 µM (inactive)
- GI50 (LOX IMVI): 11.5 µM (inactive)
- GI50 (SN12C): 15.4 µM (inactive)
- GI50 (786-0): 19.9 µM (inactive)
- GI50 (HOP-62): 23.9 µM (inactive)
- GI50 (SF-539): 31.8 µM (inactive)

Compound: CC1=NN(c2nc(N)nc(/C(C#N)=C/c3ccc([N+](=O)[O-])o3)n2)C(C)(C)C1
- GI50 (HCC 2998): 15.8 µM (inactive)
- GI50 (Hs-578T): 13.2 µM (inactive)
- GI50 (SF-295): 16.5 µM (inactive)
- GI50 (SK-OV-3): 21.1 µM (inactive)
- GI50 (A498): 17.8 µM (inactive)
- GI50 (SR): 2.58 µM (inactive)
- GI50 (ACHN): 1.81 µM (inactive)
- GI50 (EKVX): 3.37 µM (inactive)
- GI50 (UACC-62): 2.19 µM (inactive)
- GI50 (SK-MEL-28): 5.06 µM (inactive)
- GI50 (RXF 393): 1.75 µM (inactive)
- GI50 (MOLT-4): 2.26 µM (inactive)
- GI50 (UO-31): 2.92 µM (inactive)
- GI50 (SNB-75): 2.85 µM (inactive)
- GI50 (LOX IMVI): 1.73 µM (inactive)
- GI50 (SN12C): 1.88 µM (inactive)
- GI50 (786-0): 1.57 µM (inactive)
- GI50 (HOP-62): 17.2 µM (inactive)
- GI50 (SF-539): 3.22 µM (inactive)
